Measurements from patent US11077115B2, “Rorgamma modulators and uses thereof” (Genfit, priority 2017, dated 2021).
Structures can show the parent of a compound that is named as a salt.

melting point [°C] | SMILES
101 | Cc1ccc(C(NC(=O)Cc2ccc(N3CCS(=O)(=O)CC3)cc2)c2ccc(C)o2)c(N2CCCCC2)c1 (centres unmarked) (as salt: HCl) [Cpd. 6, 2-[4-(1,1-dioxo-1-thiomorpholin-4-yl)phenyl]-N-{[4-methyl-2-(piperidin-1-yl)phenyl](5-methylfuran-2-yl)methyl}acetamide]
96 | Cc1ccc(C(NC(=O)Cc2ccc(N3CCS(=O)(=O)CC3)cc2C)c2ccc(C)o2)c(N2CCCCC2)c1 (centres unmarked) (as salt: HCl) [Cpd. 18, 2-[4-(1,1-dioxo-1-thiomorpholin-4-yl)-2-methylphenyl]-N-{[4-methyl-2-(piperidin-1-yl)phenyl](5-methylfuran-2-yl)methyl}acetamide]
178 | Cc1ccc(C(NC(=O)Cc2ccc(N3CCS(=O)(=O)CC3)cc2C)c2ccc(C)o2)c(C)c1 (centres unmarked) (as salt: HCl) [Cpd. 19, N-[(2,4-dimethylphenyl)(5-methylfuran-2-yl)methyl]-2-[4-(1,1-dioxo-1-thiomorpholin-4-yl)-2-methylphenyl]acetamide]
102 | Cc1ccc(C(NC(=O)Cc2ccc(N3CCS(=O)(=O)CC3)cn2)c2ccc(C)o2)c(N2CCCCC2)c1 (centres unmarked) (as salt: HCl) [Cpd. 47, 2-[5-(1,1-dioxo-1-thiomorpholin-4-yl)pyridin-2-yl]-N-{[4-methyl-2-(piperidin-1-yl)phenyl](5-methylfuran-2-yl)methyl}acetamide]
105 | Cc1ccc(C(NC(=O)Cc2ccc(N3CCS(=O)(=O)CC3)c(O)c2)c2ccc(C)o2)c(N2CCCCC2)c1 (centres unmarked) (as salt: HCl) [Cpd. 61, 2-[4-(1,1-dioxo-1-thiomorpholin-4-yl)-3-hydroxyphenyl]-N-{[4-methyl-2-(piperidin-1-yl)phenyl](5-methylfuran-2-yl)methyl}acetamide]
219 | Cc1ccc(C(NC(=O)Cc2cc(N3CCS(=O)(=O)CC3)ccc2C)c2ccccc2)c(N2CCOCC2)c1 (centres unmarked) (as salt: HCl) [Cpd. 7, 2-[5-(1,1-dioxo-1-thiomorpholin-4-yl)-2-methylphenyl]-N-{[4-methyl-2-(morpholin-4-yl)phenyl](phenyl)methyl}acetamide]
87 | COCc1ccc(CC(=O)NC(c2ccc(C)o2)c2ccc(C)cc2N2CCCCC2)cc1N1CCS(=O)(=O)CC1 (centres unmarked) (as salt: HCl) [Cpd. 62, 2-[3-(1,1-dioxo-1-thiomorpholin-4-yl)-4-(methoxymethyl)phenyl]-N-{[4-methyl-2-(piperidin-1-yl)phenyl](5-methylfuran-2-yl)methyl}acetamide]
188 | Cc1ccc(N2CCS(=O)(=O)CC2)cc1CC(=O)NC(c1ccccc1)c1ccccc1N1CCCCC1 (centres unmarked) (as salt: HCl) [Cpd. 2, 2-[5-(1,1-dioxo-1-thiomorpholin-4-yl)-2-methylphenyl]-N-{phenyl[2-(piperidin-1-yl)phenyl]methyl}acetamide]
199 | Cc1ccc(C(NC(=O)Cc2cnc(N3CCS(=O)(=O)CC3)nc2)c2ccc(C)o2)c(Br)c1 (centres unmarked) (as salt: HCl) [Cpd. 34, N-[(2-bromo-4-methylphenyl)(5-methylfuran-2-yl)methyl]-2-[2-(1,1-dioxo-1-thiomorpholin-4-yl)pyrimidin-5-yl]acetamide]
109 | Cc1ccc(C(NC(=O)Cc2ccc(N3CCS(=O)(=O)CC3)c(C)c2)c2ccccc2)c(N2CC3CC3C2)c1 (centres unmarked) (as salt: HCl) [Cpd. 23, N-[(2-{3-azabicyclo[3.1.0]hexan-3-yl}-4-methylphenyl)(phenyl)methyl]-2-[4-(1,1-dioxo-1-thiomorpholin-4-yl)-3-methylphenyl]acetamide]
173 | Cc1ccc(C(NC(=O)Cc2ccc(N3CCS(=O)(=O)CC3)cc2C)c2ccc(C)o2)c(Br)c1 (centres unmarked) (as salt: HCl) [Cpd. 21, N-[(2-bromo-4-methylphenyl)(5-methylfuran-2-yl)methyl]-2-[4-(1,1-dioxo-1-thiomorpholin-4-yl)-2-methylphenyl]acetamide]
88 | COc1ccc(CC(=O)NC(c2ccc(C)o2)c2ccc(C)cc2N2CCCCC2)cc1N1CCS(=O)(=O)CC1 (centres unmarked) (as salt: HCl) [Cpd. 30, 2-[3-(1,1-dioxo-1-thiomorpholin-4-yl)-4-methoxyphenyl]-N-{[4-methyl-2-(piperidin-1-yl)phenyl](5-methylfuran-2-yl)methyl}acetamide]
157 | Cc1ccc(C(NC(=O)C2(c3ccc(N4CCS(=O)(=O)CC4)cc3)CC2)c2ccc(Cl)o2)cc1 (centres unmarked) (as salt: HCl) [Cpd. 67, N-[(5-chlorofuran-2-yl)(4-methylphenyl)methyl]-1-[4-(1,1-dioxo-1-thiomorpholin-4-yl)phenyl]cyclopropane-1-carboxamide]
79 | Cc1ccc(C(NC(=O)C2(c3ccc(N4CCS(=O)(=O)CC4)cc3)CCC2)c2ccc(C)o2)c(C)c1 (centres unmarked) (as salt: HCl) [Cpd. 41, N-[(2,4-dimethylphenyl)(5-methylfuran-2-yl)methyl]-1-[4-(1,1-dioxo-1-thiomorpholin-4-yl)phenyl]cyclobutane-1-carboxamide]
159 | Cc1ccc(N2CCCCC2)c(C(NC(=O)Cc2cnc(N3CCS(=O)(=O)CC3)nc2)c2ccc(C)o2)c1 (centres unmarked) (as salt: HCl) [Cpd. 17, 2-[2-(1,1-dioxo-1-thiomorpholin-4-yl)pyrimidin-5-yl]-N-{[5-methyl-2-(piperidin-1-yl)phenyl](5-methylfuran-2-yl)methyl}acetamide]
146 | Cc1ccc(C(NC(=O)Cc2ccc(O)c(N3CCS(=O)(=O)CC3)c2)c2ccc(C)o2)c(C)c1 (centres unmarked) (as salt: HCl) [Cpd. 43, N-[(2,4-dimethylphenyl)(5-methylfuran-2-yl)methyl]-2-[3-(1,1-dioxo-1-thiomorpholin-4-yl)-4-hydroxyphenyl]acetamide]
106 | Cc1ccc(C(NC(=O)C2(c3ccc(N4CCS(=O)(=O)CC4)c(Br)c3)CC2)c2ccc(C)o2)c(N2CCCCC2)c1 (centres unmarked) (as salt: HCl) [Cpd. 37, 1-[3-bromo-4-(1,1-dioxo-1-thiomorpholin-4-yl)phenyl]-N-{[4-methyl-2-(piperidin-1-yl)phenyl](5-methylfuran-2-yl)methyl}cyclopropane-1-carboxamide]
67 | Cc1ccc(C(NC(=O)C(C)(C)c2ccc(N3CCS(=O)(=O)CC3)cc2)c2ccc(C)o2)c(C)c1 (centres unmarked) (as salt: HCl) [Cpd. 40, N-[(2,4-dimethylphenyl)(5-methylfuran-2-yl)methyl]-2-[4-(1,1-dioxo-1-thiomorpholin-4-yl)phenyl]-2-methylpropanamide]
82 | Cc1ccc(C(NC(=O)C2(c3cnc(N4CCS(=O)(=O)CC4)nc3)CC2)c2ccc(C)o2)c(C)c1 (centres unmarked) (as salt: HCl) [Cpd. 48, N-[(2,4-dimethylphenyl)(5-methylfuran-2-yl)methyl]-1-[2-(1,1-dioxo-1-thiomorpholin-4-yl)pyrimidin-5-yl]cyclopropane-1-carboxamide]
104 | Cc1ccc(C(NC(=O)Cc2ccc(N3CCS(=O)(=O)CC3)cc2)c2ccccc2)c(N2CC3CC3C2)c1 (centres unmarked) (as salt: HCl) [Cpd. 22, N-[(2-{3-azabicyclo[3.1.0]hexan-3-yl}-4-methylphenyl)(phenyl)methyl]-2-[4-(1,1-dioxo-1-thiomorpholin-4-yl)phenyl]acetamide]
87 | Cc1ccc(C(NC(=O)C2(c3ncc(N4CCS(=O)(=O)CC4)cc3C)CC2)c2ccc(C)o2)c(C)c1 (centres unmarked) (as salt: HCl) [Cpd. 72, N-[(2,4-dimethylphenyl)(5-methylfuran-2-yl)methyl]-1-[5-(1,1-dioxo-1-thiomorpholin-4-yl)-3-methylpyridin-2-yl]cyclopropane-1-carboxamide]
76 | Cc1ccc(C(NC(=O)C2(c3ccc(N4CCS(=O)(=O)CC4)cc3)CC2)c2ccc(Cl)o2)c(C)c1 (centres unmarked) (as salt: HCl) [Cpd. 66, N-[(5-chlorofuran-2-yl)(2,4-dimethylphenyl)methyl]-1-[4-(1,1-dioxo-1-thiomorpholin-4-yl)phenyl]cyclopropane-1-carboxamide]
77 | COc1ccc(C(NC(=O)C2(c3ccc(N4CCS(=O)(=O)CC4)cc3)CC2)c2ccc(C)o2)c(C)c1 (centres unmarked) (as salt: HCl) [Cpd. 44, 1-[4-(1,1-dioxo-1-thiomorpholin-4-yl)phenyl]-N-[(4-methoxy-2-methylphenyl)(5-methylfuran-2-yl)methyl]cyclopropane-1-carboxamide]
184 | O=C(Cc1cc(N2CCS(=O)(=O)CC2)ccc1F)NC(c1ccccc1)c1ccccc1N1CCCCC1 (centres unmarked) (as salt: HCl) [Cpd. 3, 2-[5-(1,1-dioxo-1-thiomorpholin-4-yl)-2-fluorophenyl]-N-{phenyl[2-(piperidin-1-yl)phenyl]methyl}acetamide]
74 | Cc1ccc(C(NC(=O)C2(c3ccc(N4CCS(=O)(=O)CC4)c(C)n3)CC2)c2ccc(C)o2)c(C)c1 (centres unmarked) (as salt: HCl) [Cpd. 71, N-[(2,4-dimethylphenyl)(5-methylfuran-2-yl)methyl]-1-[5-(1,1-dioxo-1-thiomorpholin-4-yl)-6-methylpyridin-2-yl]cyclopropane-1-carboxamide]
100 | Cc1ccc(C(NC(=O)Cc2ccc(CO)c(N3CCS(=O)(=O)CC3)c2)c2ccc(C)o2)c(N2CCCCC2)c1 (centres unmarked) (as salt: HCl) [Cpd. 63, 2-[3-(1,1-dioxo-1-thiomorpholin-4-yl)-4-(hydroxymethyl)phenyl]-N-{[4-methyl-2-(piperidin-1-yl)phenyl](5-methylfuran-2-yl)methyl}acetamide]
211 | Cc1ccc(C(NC(=O)Cc2cnc(N3CCS(=O)(=O)CC3)nc2C)c2ccc(C)o2)c(C)c1 (centres unmarked) (as salt: HCl) [Cpd. 42, N-[(2,4-dimethylphenyl)(5-methylfuran-2-yl)methyl]-2-[2-(1,1-dioxo-1-thiomorpholin-4-yl)-4-methylpyrimidin-5-yl]acetamide]
208 | Cc1ccc(C(NC(=O)Cc2cnc(N3CCS(=O)(=O)CC3)nc2)c2ccc(C)o2)c(Cl)c1 (centres unmarked) (as salt: HCl) [Cpd. 51, N-[(2-chloro-4-methylphenyl)(5-methylfuran-2-yl)methyl]-2-[2-(1,1-dioxo-1-thiomorpholin-4-yl)pyrimidin-5-yl]acetamide]
215 | Cc1ccc(C(NC(=O)Cc2cnc(N3CCS(=O)(=O)CC3)nc2)c2ccc(Cl)cc2Cl)o1 (centres unmarked) (as salt: HCl) [Cpd. 50, N-[(2,4-dichlorophenyl)(5-methylfuran-2-yl)methyl]-2-[2-(1,1-dioxo-1-thiomorpholin-4-yl)pyrimidin-5-yl]acetamide]
